Experimental data reported in patent publication US5541310A, “Herbicide resistant plants” (Ciba-Geigy Corporation, priority 1994, dated 1996).

Key:
wheat germ IGPD = experiment: IGPD enzyme activity / inhibitor assay with purified wheat germ IGPD; assay type: biochemical
Protocol: Purified IGPD may be used in assays to discover novel inhibitors of the enzyme, which inhibitors potentially would function as commercially viable herbicides. Typically, the inhibitory effect of a chemical on IGPD is determined by the absorbance difference at 370 nm using an absorbance coefficient of 10,400, which signifies the production of IAP from IGP. See, Ames et al., J. Biol. Chem. 212:687-697 (1957). Inhibitor solutions in various concentrations, e.g. 1 mM, 100 μM, 10 μM, and 1 μM, are added to the reaction mixture prior to the initiation of the enzyme reaction. A representative reaction mixture contains 50 mM Bis-Tris-propane-HCl (pH 6.6), 100 mM 2-mercaptoethanol, 1 mM MnCl2, 1 mM IGP, and between 2 and 5 mU of IGPD. Once IGP is added, the reaction is rim at 30° C., and is stopped by the addition of perchlorie acid up to 10% volume of the reaction mixture. […] Five volumes of 5N NaOH are added to the solution, and after two minutes, enolized IA is measured spectroscopically. […]
IGPD activity was determined by measuring imidazoleacetol obtained by hydrolyzing IAP. […] Five volumes of 5N NaOH were added to the solution, and after 2 minutes, the concentration of enolized imidazoleacetol was determined from the absorbance at 370 nm using the absorbance coefficient of 10,400 (Ames and Mitchell, 1955). […]

[1] = test system: IGPD-G (IGPD-overexpressing line); experiment: Greenhouse plants treated with inhibitor, health visually scored; assay type: in vivo, Nicotiana tabacum cv. Xanthi-nc; design: key: 1 = severe stunting, severe chlorosis combined with necrosis; 2 = severe stunting, some interveinal chlorosis; 3 = moderate stunting, some interveinal chlorosis, pinnate leaves; 4 = moderate stunting, normal leaf morphology; 5 = healthy, with no symptoms
Protocol: (§1) To further evaluate resistance of the IGPD-overexpressing line IGPD-G, plants were grown in the greenhouse and treated with various concentrations of the inhibitor IRL 1803. After treatment, plants were photographed, and their health was visually scored.

Xanthi (untransformed) = experiment: as above; assay type: in vivo, Nicotiana tabacum cv. Xanthi-nc; design: key: 1 = severe stunting, severe chlorosis combined with necrosis; 2 = severe stunting, some interveinal chlorosis; 3 = moderate stunting, some interveinal chlorosis, pinnate leaves; 4 = moderate stunting, normal leaf morphology; 5 = healthy, with no symptoms
Protocol: as §1

[2] = test system: Leaf disks of transgenic Nicotiana tabacum lines IGPD-C, E, and G; experiment: Leaf disk growth (weight) on MS agar containing IGPD inhibitor, transgenic lines versus wild type; assay type: in vivo, Nicotiana tabacum cv. Xanthi-nc; details: 30 ppm inhibitor on MS agar, after three weeks
Text: Leaf disks of Nicotiana tabacum cv. Xanthi-nc were infected with A. tumefaciens CIB542 harboring pCIB200IGPD as described by Horsch et al, Science 227:1229 (1985). Kanamycin-resistant shoots from 15 independent leaf disks were transferred to rooting medium, then transplanted to soil and the resulting plants grown to maturity in the greenhouse. Seed from these plants were collected and germinated on MS agar medium containing kanamycin. Ten individual kanamycin resistant seedlings from each independent primary transformant were grown to maturity in the greenhouse, and their seed collected. These seeds were germinated on MS agar medium conta/ning kanamycin.
Plant lines that gave rise to exclusively kanamycin resistant seedlings were homozygous for the inserted gene and were subjected to further analysis. Leaf disks of each of the 15 independent transgenie lines were excised with a paper punch and placed onto MS agar containing 0 or 30 ppm of a specific IGPD inhibitor represented by formula (II), namely: [drawing 11] After three weeks, two sets of 10 disks from each line were weighed, and the results recorded. Transgenie lines designated IGPD-C, E, and G were approximately 3-fold more resistant to the inhibitor than wild type, non-transformed plants.

With `[Mn+2]` [manganese ions] the “enhancement of the activity of the enzyme” value (wheat germ IGPD; manganese ions at a concentration of 0.5 mM) was 7 fold and the Km (wheat germ IGPD; read-out: Km value for Mn2+) was roughly 110 µM.

In the case of `O=P(O)(O)[C@@H]1CCC[C@](O)(c2ncn[nH]2)C1` [IRL 1803], the “Visual Score after Treatment” value ([1]; 1000 ppm) is reported as 4, the “Visual Score after Treatment” value ([1]; 10000 ppm) is reported as 2 and the “Visual Score after Treatment” value (Xanthi (untransformed); 1000 ppm) is reported as 3. For the same compound, the “Visual Score after Treatment” value (Xanthi (untransformed); 10000 ppm) was 1.

With `O=P(O)(O)C1CCCC(O)(c2ncn[nH]2)C1` (stereo not shown) the “resistance to the inhibitor relative to wild type, non-transformed plants (leaf disk weight)” value [2] was “approximately 3 fold”.
